The subject of one series is CYP3A. The conditions noted are these: read-out: IC50 or Ki values determined previously; CYP3A inhibitors in grapefruit juice; cited from earlier work.
Series [1] has as its target T1, CYP3A (intestinal) (Homo sapiens, UniProt P08684). Nature of the series: in vitro. Conditions: microsomes, pH 7.4, IC50, HIM as the enzyme source.
Series [2] deals with recombinant CYP3A4 (rCYP3A4) (Homo sapiens, UniProt P08684). In words: IC50 of triterpenes for midazolam 1′-hydroxylation using recombinant CYP3A4.
Series [3] addresses T1, CYP3A (intestinal). Conditions: microsomes, pH 7.4.

Like-named read-outs stand apart in the source and are kept apart here.

A word on the IC50: it is the concentration that inhibits the measured activity by half. With `CC(=CCOc1c2ccoc2cc2oc(=O)ccc12)CCC(O)C(C)(C)O` (centres unmarked) [6′,7′-dihydroxybergamottin], in the series with CYP3A, the half-maximal inhibitory concentration (IC50) was 1 to 5 µM.

Turning to `C[C@H]1[C@H](C)CC[C@]2(C(=O)O)CC[C@]3(C)C(=CC[C@@H]4[C@@]5(C)C[C@@H](O)[C@H](O)C(C)(C)[C@@H]5CC[C@]43C)[C@H]12` [Corosolic acid (3), 2α,3β-dihydroxyurs-12-en-28-oic acid], the 50% inhibitory concentration (IC50) was found to be 8.8 ± 0.9 µM against CYP3A (intestinal) [1] and 4.3 ± 0.3 µM in series [2].

As for `CC1(C)CC[C@]2(C(=O)O)CC[C@]3(C)C(=CC[C@@H]4[C@@]5(C)C[C@@H](O)[C@H](O)C(C)(C)[C@@H]5CC[C@]43C)[C@@H]2C1` [Maslinic acid (2), 2α,3β-dihydroxyolean-12-en-28-oic acid], the results for the half-inhibitory concentration (IC50) (in series [2]; on CYP3A (intestinal) [3]) were 2.8 ± 0.2 µM and 7.4 ± 0.5 µM, respectively.

(Values after publication PMC3023844 (Planta medica, 2010).)
